Measurements: patent publication US11407721B2, “CIS-morpholinone and other compounds as MDM2 inhibitors for the treatment of cancer” (AMGEN INC., priority 2013, dated 2022)
Like-named read-outs stand apart in the source and are kept apart here.

Tests used:
[1] = biological target: T1, interaction between HDM2 and p53 (GST-hMDM2 / biotinylated-p53) (Homo sapiens (Human), UniProt Q00987); conditions: read-out: HTRF3 IC50; HTRF1 conditions except 20 uL GST-hMDM2 incubated with 1.0 ul diluted compound
T1 sequence (Q00987 1-188): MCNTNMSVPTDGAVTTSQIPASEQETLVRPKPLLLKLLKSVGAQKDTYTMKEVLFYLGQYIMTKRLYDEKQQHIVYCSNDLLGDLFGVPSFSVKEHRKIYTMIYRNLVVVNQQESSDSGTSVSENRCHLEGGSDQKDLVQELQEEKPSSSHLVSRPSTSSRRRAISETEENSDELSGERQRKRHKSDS

[2] = biological target: interaction between HDM2 and p53 (GST-hMDM2 (1-188) / biotinylated-p53 (1-83)) (Homo sapiens (Human), UniProt Q00987); assay: HTRF2 Assay (improved HTRF assay); type: binding
Chain of interaction between HDM2 and p53 (GST-hMDM2 (1-188) / biotinylated-p53 (1-83)) (Q00987 1-188): as above

[3] = biological target: interaction between HDM2 and p53 (GST-hMDM2 aa 1-188 / biotinylated-p53 aa 1-83) (Homo sapiens (Human), UniProt Q00987)
Chain of interaction between HDM2 and p53 (GST-hMDM2 aa 1-188 / biotinylated-p53 aa 1-83) (Q00987 1-188): as above

[4] = biological target: T1, interaction between HDM2 and p53 (GST-hMDM2 / biotinylated-p53); assay: biochemical
[5] = 0.2 nM GST-hMDM2 (1-188), 0.5 nM biotinylated-p53 (1-83), 100 mM KF, read-out: HTRF2 IC50

In the case of “(2R,5S,6R)-5,6-Bis(4-chlorophenyl)-4-methyl-2-(pyridin-4-ylmethyl)morpholin-3-one and (2S,5R,6S)-5,6-bis(4-chlorophenyl)-4-methyl-2-(pyridin-4-ylmethyl)morpholin-3-one [Example 41]”, the IC50 [1] is reported as 5.6 µM and the IC50 [2, 5] is reported as 4.53 µM.
CC(C)N1C(=O)CS(=O)(=O)[C@@H](c2cccc(Cl)c2)[C@H]1c1ccc(Cl)cc1 [(5R,6S)-6-(3-chlorophenyl)-5-(4-chlorophenyl)-4-(1-methylethyl)-3-thiomorpholinone 1,1-dioxide] was tested, and the IC50 [3] was 1.56 µM.
Molecule C[C@@H]1O[C@@H](c2ccc(Br)cc2)[C@@H](c2ccc(Br)cc2)N(C)C1=O [(2S,5R,6S)-5,6-bis(4-bromophenyl)-2,4-dimethyl-3-morpholinone] has an IC50 [4] of 23.2 µM and an IC50 [2, 5] of 22.7 µM.
Molecule CN1C(=O)[C@@H](c2ccccc2)O[C@H](c2ccc(Br)cc2)[C@@H]1c1ccc(Br)cc1 [(2R,5S,6R)-5,6-bis(4-bromophenyl)-4-methyl-2-phenyl-3-morpholinone] has an IC50 [4] of 12.3 µM and an IC50 [2, 5] of 20 µM.
CN1C(=O)[C@@H](Cc2cccc(C(N)=O)c2)O[C@H](c2ccc(Cl)cc2)[C@@H]1c1ccc(Cl)cc1 was tested, and the IC50 [1] was 12.4 µM and the IC50 [2, 5] was 7.39 µM.
CN1C(=O)CO[C@@H](c2ccc(Cl)cc2)[C@H]1c1ccc(Cl)cc1 (mixture of isomers) [(5R,6S)-5,6-Bis(4-chlorophenyl)-4-methylmorpholin-3-one and (5S,6R)-5,6-bis(4-chlorophenyl)-4-methylmorpholin-3-one] gave an IC50 [4] of 38.6 µM and an IC50 [3] of 11.8 µM.
In the case of O=C1[C@H](C[C@H](O)CO)O[C@@H](c2cccc(Cl)c2)[C@@H](c2ccc(Cl)cc2)N1CC1CC1 (racemic) [Example 14, Step B], the IC50 [4] is reported as 4.64 µM and the IC50 ([2]; read-out: HTRF2 IC50) is reported as 3.67 µM.
With CCC[C@H](C(N)=O)N1C(=O)CO[C@@H](c2ccc(Cl)cc2)[C@H]1c1ccc(Cl)cc1 [(2R)-2-((2S,3R)-2,3-bis(4-chlorophenyl)-5-oxo-4-morpholinyl)pentanamide] the IC50 [4] was 3.19 µM and the IC50 [2, 5] was 4.29 µM.
For CCC[C@H](c1nnn[nH]1)N1C(=O)[C@H](Cc2ccc(C#N)c(F)c2)O[C@@H](c2ccc(Cl)cc2)[C@H]1c1ccc(Cl)cc1 [Example 35, 4-(((2S,5R,6S)-4-((R)-1-(1H-Tetrazol-5-yl)butyl)-5,6-bis(4-chlorophenyl)-3-oxomorpholin-2-yl)methyl)-2-fluorobenzonitrile], the IC50 [1] was 0.403 µM and the IC50 [2, 5] was 0.473 µM.
Work on CCC[C@H](C(=O)O)N1C(=O)[C@H](Cc2ccc(C#N)c(F)c2)O[C@@H](c2ccc(Cl)cc2)[C@H]1c1ccc(Cl)cc1 [(2R)-2-((2S,3R,6S)-2,3-bis(4-chlorophenyl)-6-(4-cyano-3-fluorobenzyl)-5-oxo-4-morpholinyl)pentanoic acid] yielded an IC50 [4] of 0.443 µM and an IC50 [2] of 0.539 µM.
For CS(=O)(=O)OCC[C@H]1O[C@H](c2cccc(Cl)c2)[C@H](c2ccc(Cl)cc2)N(CC2CC2)C1=O, the IC50 [1] was 6.86 µM and the IC50 [2, 5] was 4.81 µM.
CCC[C@H](COC(N)=O)N1C(=O)CO[C@@H](c2ccc(Cl)cc2)[C@H]1c1ccc(Cl)cc1 [(2R)-2-((2S,3R)-2,3-bis(4-chlorophenyl)-5-oxo-4-morpholinyl)pentyl carbamate] was tested, and the IC50 [4] was 3.72 µM and the IC50 [2, 5] was 3.61 µM.
For CC(C)N1C(=O)CO[C@H](c2ccc(Br)cc2)[C@@H]1c1ccc(Br)cc1 [(5S,6R)-5,6-bis(4-bromophenyl)-4-(1-methylethyl)-3-morpholinone], the IC50 [4] was 24.6 µM and the IC50 [2, 5] was greater than 100 µM.
In the case of CN1C(=O)[C@@H](Cc2ccc(C(N)=O)cc2)O[C@H](c2ccc(Cl)cc2)[C@@H]1c1ccc(Cl)cc1, the IC50 [1] is reported as 5.8 µM and the IC50 [2, 5] is reported as 3.66 µM.
CCC[C@H](C(=O)N1CCN(CCC(=O)O)CC1)N1C(=O)CO[C@@H](c2ccc(Cl)cc2)[C@H]1c1ccc(Cl)cc1 gave an IC50 [1] of 4.59 µM and an IC50 [2, 5] of 3.6 µM.
Work on O=C1CS(=O)(=O)[C@@H](c2cccc(Cl)c2)[C@@H](c2ccc(Cl)cc2)N1CC1CC1 [(5R,6S)-6-(3-chlorophenyl)-5-(4-chlorophenyl)-4-(cyclopropylmethyl)-3-thiomorpholinone 1,1-dioxide] yielded an IC50 [3] of 4.76 µM and an IC50 [2, 5] of 22.4 µM.
In the case of O=C1CO[C@@H](c2ccc(Cl)cc2)[C@@H](c2ccc(Cl)cc2)N1c1ccccc1 [(5R,6S)-5,6-bis(4-chlorophenyl)-4-phenyl-3-morpholinone], the IC50 [4] is reported as greater than 100 µM and the IC50 [2, 5] is reported as 31.6 µM.
Work on CN(C)C(=O)C[C@H]1O[C@H](c2cccc(Cl)c2)[C@H](c2ccc(Cl)cc2)N(CC2CC2)C1=O yielded an IC50 [1] of 2.78 µM and an IC50 [2, 5] of 7.56 µM.
CCC[C@H](C(=O)NCC(=O)O)N1C(=O)[C@H](Cc2ccc(C#N)c(F)c2)O[C@@H](c2ccc(Cl)cc2)[C@H]1c1ccc(Cl)cc1 [N-((2R)-2-((2S,3R,6S)-2,3-bis(4-chlorophenyl)-6-(4-cyano-3-fluorobenzyl)-5-oxo-4-morpholinyl)pentanoyl)glycine] showed an IC50 [4] of 0.39 µM and an IC50 [2] of 0.517 µM.
Work on CCCC[C@H](C(=O)O)N1C(=O)CO[C@@H](c2ccc(Cl)cc2)[C@H]1c1ccc(Cl)cc1 [(2R)-2-((2S,3R)-2,3-bis(4-chlorophenyl)-5-oxo-4-morpholinyl)hexanoic acid] yielded an IC50 [4] of 27.5 µM and an IC50 [2] of 23.4 µM.
In the case of CCC[C@@H](C(=O)O)N1C(=O)[C@@H](Cc2ccncc2)O[C@H](c2ccc(Cl)cc2)C1c1ccc(Cl)cc1 (mixture of isomers) [Example 42, (S)-2-((2R,3S,6R)-2,3-Bis(4-chlorophenyl)-5-oxo-6-(pyridin-4-ylmethyl)morpholino)pentanoic acid and (R)-2-((2S,3R,6S)-2,3-bis(4-chlorophenyl)-5-oxo-6-(pyridin-4-ylmethyl)morpholino)pentanoic acid], the IC50 [4] is reported as 0.539 µM and the IC50 [2, 5] is reported as 0.947 µM.
Work on O=C1CO[C@@H](c2ccc(Cl)cc2)[C@@H](c2ccc(Cl)cc2)N1c1cccnc1 [(5R,6S)-5,6-bis(4-chlorophenyl)-4-(3-pyridinyl)-3-morpholinone] yielded an IC50 [4] of 23.9 µM and an IC50 [2, 5] of 29.6 µM.
